Results reported in patent publication EP0205025A1, “Fluorine derivatives of vitamin D3 and cell differentiation-inducing agents containing the same as an active ingredient” (SUMITOMO PHARMACEUTICALS COMPANY, LIMITED, priority 1985, dated 1986).

What was measured:
[1] = system: HL-60 cells; assay: Proliferation-suppression rate of HL-60 cells (Coulter counter); format: cell-based; conditions: Homo sapiens, 96 h, HL-60, 4 days, relative to untreated group; for inhibition at 0.01 µM: 1x10^-8 M (column of 1α, 25-(OH)2D3 printed 1x10^8); for inhibition at 0.003 µM: 3x10^-9 M
Protocol: An HL-60 cell fluid adjusted to a concentration of 5 x 10^4 cells/ml was incorporated with each of the agents to be tested and cultivated in a carbon dioxide incubator at 37°C for 4 days. After the cultivation, the number of cells was measured by means of a Coulter counter. The percentage of the number thus measured relative to the number of cells in an untreated group was calculated, from which the proliferation-suppression rate was obtained.

[2] = system: HL-60 cells; assay: NBT reduction of HL-60 cells after treatment (TPA stimulation, microscopy); format: cell-based, human; conditions: HL-60 treated 4 days, percentage of NBT reduction-positive cells of 200 cells
Protocol: Thereafter, the cells were smeared onto a slide glass, subjected to giemsa staining, and the coloration of cells was examined under a microscope. The number of colored cells was measured for 200 cells, and the results were expressed in terms of the percentage of NBT reduction- positive cells.

[3] = system: HL-60 cells; assay: Binding property of monoclonal antibodies (MAS 072 anti-human monocyte, OKT 9 anti-human transferrin receptor) to treated HL-60 cells, indirect fluorescent antibody technique, FACS; format: cell-based; conditions: for Binding property of monoclonal antibody MAS072 (%): anti-human monocyte antibody, control 17.0; for Binding property of monoclonal antibody OKT9 (%): anti-human transferrin receptor antibody, control 95.7
Protocol: HL-60 cells wre treated with the agent as described above, and then stained by indirect fluorescent antibody technique using monoclonal antibodies [MAS 072 (Sera-lab) anti-human monocyte and OKT 9 (Ortho-mune) anti-human transferrin receptor] and a fluorescent antibody [FITC-anti-mouse IgG (Miles)], and the resulting fluorescence intensity was determined by FACS to obtain the binding property of the monoclonal antibody in terms of a percentage.

[4] = 1x10^-8 M (column of 1α, 25-(OH)2D3 printed 1x10^8)

| Structure (SMILES) | inhibition at 0.01 µM [1] [%] | inhibition at 0.003 µM [1] [%] | NBT reduction rate (%) [2, 4] [%] | NBT reduction rate (%) ([2]; 3x10^-9 M) | Binding property of monoclonal antibody MAS072 (%) [3, 4] [%] | Binding property of monoclonal antibody OKT9 (%) [3, 4] [%] | Binding property of monoclonal antibody OKT9 (%) ([3]; 3x10^-9 M) |
| --- | --- | --- | --- | --- | --- | --- | --- |
| C=C1C(=CC=C2CCCC3(C)C2CCC3C(C)CCCC(C(F)(F)F)C(F)(F)F)CC(O)CC1O (centres unmarked) [Compound A, 26,26,26,27,27,27-hexafluoro-la-hydroxyvitamin D3] | 74.9 | 58.5 | 91.5 | 77.0 | 79.0 | 11.1 | 16.7 |
| C=C1C(=CC=C2CCCC3(C)C2CCC3C(C)CCCC(C)(C)O)CC(O)CC1O (stereo not drawn) [1α, 25-(OH)2D3, 1α, 25-dihydroxyvitamin D3] | 66 | 47.2 | 87.0 | 48.5 | 55.8 | 22.6 | 61.5 |
